This note sets out measurements from US6506781B1, “Oxazole PPAR antagonist” (SmithKline Beecham Corporation, priority 1999, dated 2003).

For the assay, the system named is male ZDF/GMI fa/fa rats. Kind of assay: Experimental animal protocol: blood glucose, triglycerides and NEFAs in ZDF rats. The settings on record: 150 mg/kg twice a day oral gavage, after 2 weeks, non-fasting, mean ± SEM. The format is in vivo. How it is done:
Experimental Animal Protocol
Age and weight matched male ZDF/GMI fa/fa rats (Genetic Models) were housed at 72 degF. and 50% relative humidity with a 12 hr light and dark cycle. Starting at 8 weeks of age the animals were dosed twice a day by oral gavage with 150 mg/kg of example 2. After 2 weeks the animals were anesthetized with isofluorane, blood drawn by cardiac puncture, and non-fasting measurements of glucose, triglycerides, and non-esterified free fatty acids (NEFAS) were obtained. The data were calculated as the mean and standard error (SEM) from experiments performed on ten animals per treatment group. Two-tailed tests were performed to calculate P values using Excel on a personal computer. This research complied with the principles of laboratory animal care (NIH publication No. […], revised 1985) and company policy on the care and use of animals and related codes of practice.

In the case of `CCCc1nnc(C[C@H](Nc2ccccc2C(=O)c2ccccc2)c2ccc(OCCc3nc(-c4ccccc4)oc3C)cc2)o1` [Example 1, (S)-{{2-[1-(2-Benzoylphenyl)amino]-2-{4-[2-(5-methyl-2-phenyloxazol-4-yl)ethoxy]phenyl}ethyl}}-5-propyl-1,3,4-oxadiazole], for the setting “control 1.48 ± 0.09”, the “Free Fatty Acids” value turned out to be 1.14 ± 0.06 mEq/L. This compound came in with a Glucose (control 313 ± 62) of 201 ± 13 mg/dL. Also, for the setting “control 1507 ± 143”, the Triglycerides is listed as 734 ± 102 mg/dL.
